From ChEMBL document CHEMBL1143153, “BACE-1 inhibitors part 1: identification of novel hydroxy ethylamines (HEAs)” (Bioorg Med Chem Lett, 2008)
pIC50: −log10 of the molar value.

What was measured:
Beta-secretase 2 = target: T1, Beta-secretase 2 (Homo sapiens, UniProt Q9Y5Z0); test: Inhibition of BACE2
T1 sequence (Q9Y5Z0 whole entry): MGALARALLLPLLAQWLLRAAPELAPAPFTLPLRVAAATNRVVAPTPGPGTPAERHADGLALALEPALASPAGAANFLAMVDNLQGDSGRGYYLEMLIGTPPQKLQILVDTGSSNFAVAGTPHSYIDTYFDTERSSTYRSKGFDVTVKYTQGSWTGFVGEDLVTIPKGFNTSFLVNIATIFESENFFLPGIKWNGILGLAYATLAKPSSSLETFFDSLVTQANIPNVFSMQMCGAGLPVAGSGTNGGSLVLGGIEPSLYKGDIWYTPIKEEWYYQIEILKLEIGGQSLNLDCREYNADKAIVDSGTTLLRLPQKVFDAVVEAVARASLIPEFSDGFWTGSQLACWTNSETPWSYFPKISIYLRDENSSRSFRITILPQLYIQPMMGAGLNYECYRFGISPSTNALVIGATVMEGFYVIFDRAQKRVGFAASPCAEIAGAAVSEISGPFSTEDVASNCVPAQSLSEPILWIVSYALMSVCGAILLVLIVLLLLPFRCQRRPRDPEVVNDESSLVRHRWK

Beta-secretase 1 [1] = target: T2, Beta-secretase 1 (Homo sapiens, UniProt P56817); test: Inhibition of BACE1
T2 sequence (P56817 whole entry): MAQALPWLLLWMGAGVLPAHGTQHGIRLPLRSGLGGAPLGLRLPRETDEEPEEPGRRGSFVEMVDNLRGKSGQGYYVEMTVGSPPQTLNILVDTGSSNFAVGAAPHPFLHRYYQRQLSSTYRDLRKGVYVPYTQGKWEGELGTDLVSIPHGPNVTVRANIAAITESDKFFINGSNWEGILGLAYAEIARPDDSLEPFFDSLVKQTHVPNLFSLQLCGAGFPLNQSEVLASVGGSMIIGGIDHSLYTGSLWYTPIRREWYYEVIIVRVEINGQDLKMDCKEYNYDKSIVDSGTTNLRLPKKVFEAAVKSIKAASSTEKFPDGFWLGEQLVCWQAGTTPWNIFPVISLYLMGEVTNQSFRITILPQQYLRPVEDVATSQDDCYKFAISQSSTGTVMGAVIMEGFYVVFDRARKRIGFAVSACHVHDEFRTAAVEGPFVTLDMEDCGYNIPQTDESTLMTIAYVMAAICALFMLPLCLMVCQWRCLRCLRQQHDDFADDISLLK

Beta-secretase 1 [2] = target: T2, Beta-secretase 1; test: Inhibition of BACE1 expressed in SHSY5Y cells assessed as reduction of amyloid beta 40 production; assay type: cell-based, SH-SY5Y
Beta-secretase 1 [3] = target: T2, Beta-secretase 1; assay type: cell-based, SH-SY5Y
Cathepsin D = Cathepsin D (Homo sapiens, UniProt P07339); test: Inhibition of cathepsin D
Chain of Cathepsin D (P07339 65-162 limits assumed): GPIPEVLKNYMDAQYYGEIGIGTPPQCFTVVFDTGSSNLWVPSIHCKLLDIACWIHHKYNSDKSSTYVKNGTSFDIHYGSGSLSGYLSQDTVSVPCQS
Chain of Cathepsin D (P07339 169-412 limits assumed): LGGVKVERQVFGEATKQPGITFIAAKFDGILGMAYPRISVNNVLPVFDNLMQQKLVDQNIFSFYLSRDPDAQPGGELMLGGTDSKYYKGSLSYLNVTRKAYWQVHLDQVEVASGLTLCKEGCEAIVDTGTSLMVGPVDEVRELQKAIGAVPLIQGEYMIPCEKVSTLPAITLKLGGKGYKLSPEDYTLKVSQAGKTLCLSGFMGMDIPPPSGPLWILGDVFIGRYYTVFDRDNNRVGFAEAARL

| Structure (SMILES) | pIC50 (Beta-secretase 2) | pIC50 (Beta-secretase 1 [1]) | pIC50 (Beta-secretase 1 [2]) | pIC50 (Beta-secretase 1 [3]) | pIC50 (Cathepsin D) |
| --- | --- | --- | --- | --- | --- |
| CC(C)Nc1cc(C(=O)N[C@@H](Cc2ccccc2)[C@H](O)CN[C@@H](C)C(=O)NC2CCCCC2)cc(N2CCCC2=O)c1 | 6.08 | 7.41 | 6.48 | 6.55 | 5.27 |
| C[C@H](NC[C@@H](O)[C@H](Cc1ccccc1)NC(=O)c1cc(N2CCCC2)cc(N2CCCC2=O)c1)C(=O)NC1CCCCC1 | 5.06 | 6.07 | – | – | 5.03 |
| CC(C)CNc1cc(C(=O)N[C@@H](Cc2ccccc2)[C@H](O)CN[C@@H](C)C(=O)NC2CCCCC2)cc(N2CCCC2=O)c1 | 6.19 | 6.74 | – | – | 5.51 |
| CC(C)Oc1cc(C(=O)N[C@@H](Cc2ccccc2)[C@H](O)CN[C@@H](C)C(=O)NC2CCCCC2)cc(N2CCCC2=O)c1 | 5.32 | 6.92 | 5.95 | 5.93 | 4.91 |
| CC(C)C[C@H](NC(=O)c1cccc(S(C)(=O)=O)c1)[C@H](O)CN[C@@H](C)C(=O)NC1CCCCC1 | – | < 3.30 | – | – | – |
| CCCCCOc1cc(C(=O)N[C@@H](Cc2ccccc2)[C@H](O)CN[C@@H](C)C(=O)NC2CCCCC2)cc(N2CCCC2=O)c1 | 6.40 | 7.49 | – | – | 6.37 |
| C[C@H](NC[C@H](O)[C@H](Cc1ccccc1)NC(=O)c1cccc(S(C)(=O)=O)c1)C(=O)NC1CCCCC1 | – | < 3.30 | – | – | – |
| CCCc1cc(C(=O)N[C@@H](Cc2ccccc2)[C@H](O)CN[C@@H](C)C(=O)NC2CCCCC2)cc(N2CCCC2=O)c1 | 5.80 | 7.14 | 6.00 | 6.16 | 5.34 |
| CCOc1cc(C(=O)N[C@@H](Cc2ccccc2)[C@H](O)CN[C@@H](C)C(=O)NC2CCCCC2)cc(N2CCCC2=O)c1 | 5.29 | 7.23 | 6.01 | 5.85 | 5.10 |
| COc1cc(C(=O)N[C@@H](Cc2ccccc2)[C@H](O)CN[C@@H](C)C(=O)NC2CCCCC2)cc(N2CCCC2=O)c1 | 4.54 | 6.13 | – | – | 4.52 |
| CC(=O)Nc1ccc(C(=O)N[C@@H](Cc2ccccc2)[C@H](O)CN[C@@H](C)C(=O)NC2CCCCC2)cc1 | < 4.00 | 4.21 | – | – | < 4.00 |
| C[C@H](NC[C@@H](O)[C@H](Cc1ccccc1)NC(=O)c1cccc(N2CCCS2(=O)=O)c1)C(=O)NC1CCCCC1 | < 4.68 | 5.72 | – | – | 5.00 |
| CCCOc1cc(C(=O)N[C@@H](Cc2ccccc2)[C@H](O)CN[C@@H](C)C(=O)NC2CCCCC2)cc(N2CCCC2=O)c1 | 5.08 | – | 5.77 | 5.86 | 4.33 |
| CCCCCS(=O)(=O)c1cccc(C(=O)N[C@@H](Cc2ccccc2)[C@H](O)CN[C@@H](C)C(=O)NC2CCCCC2)c1 | 5.44 | – | – | – | 6.22 |
| C[C@@H](C(=O)NC1CCCCC1)N(C)C[C@@H](O)[C@H](Cc1ccccc1)NC(=O)c1cccc(S(C)(=O)=O)c1 | – | < 3.30 | – | – | – |
| CCOc1cc(C(=O)N[C@@H](Cc2ccccc2)[C@H](O)CN[C@@H](C)C(=O)NC2CCCCC2)cc(N2CCCC2)c1 | 4.89 | 5.84 | – | – | 5.21 |
